According to ChEMBL document CHEMBL5506012, “Targeting Myeloid Leukemia-1 in Cancer Therapy: Advances and Directions” (J Med Chem, 2024):

What was measured:
[1] = molecular target: T1, Induced myeloid leukemia cell differentiation protein Mcl-1 (Homo sapiens, UniProt Q07820); test: Inhibition of N-terminal GST-tagged human Mcl-1expressed in Escherichia coli by TR-FRET analysis
[2] = system: MV4-11; test: Antiproliferative activity against human MV4-11 cells assessed as reduction in cell viability incubated for 24 hrs by Celltiter-Glo reagent based assay; settings: MV4-11, 24 h
[3] = system: MV4-11; test: Antiproliferative activity against human MV4-11 cells assessed as reduction in cell viability; format: functional, cell-based
[4] = system: AMO1; test: Antiproliferative activity against human AMO1 cells assessed as reduction in cell viability; format: functional, cell-based
[5] = system: NCI-H929; test: Antiproliferative activity against human NCI-H929 cells assessed as reduction in cell viability; format: functional, cell-based
[6] = system: MOLP-8; test: Antiproliferative activity against human MOLP8 cells assessed as reduction in cell viability incubated for 24 hrs by Celltiter-Glo reagent based assay; settings: MOLP-8, 24 h
[7] = system: NCI-H23; test: Antiproliferative activity against human NCI-H23 cells assessed as reduction in cell viability incubated for 24 hrs by Celltiter-Glo reagent based assay; format: functional; settings: NCI-H23, 24 h
[8] = molecular target: T1, Induced myeloid leukemia cell differentiation protein Mcl-1; test: Binding affinity to N-terminal His-tagged human recombinant Mcl-1 (172 to 327 residues) expressed in Escherichia coli BL21 (DE3) assessed as inhibition constant
[9] = molecular target: T1, Induced myeloid leukemia cell differentiation protein Mcl-1; test: Binding affinity to Mcl-1 (unknown origin) assessed as inhibition constant by Fluorescence polarization assay
[10] = molecular target: T1, Induced myeloid leukemia cell differentiation protein Mcl-1; test: Binding affinity to human Mcl-1 assessed as dissociation constant by Surface Plasmon Resonance assay
[11] = system: SK-MEL-2; test: Antiproliferative activity against human SK-MEL-2 cells assessed as reduction in cell viability incubated for 48 hrs by MTT assay; format: functional, cell-based; settings: SK-MEL-2, 48 h
[12] = system: NCI-H929; test: Antitumor activity against human NCI-H929 cells xenografted in mouse model assessed as tumor growth inhibition at 25 mg/kg administered for 5 days relative to control; format: functional; settings: NCI-H929, 120 h, time 5 day, read-out: TGI
[13] = system: SK-BR-3; test: Antiproliferative activity against human SK-BR-3 cells assessed as reduction in cell viability incubated for 48 hrs by MTT assay; format: functional, cell-based; settings: SK-BR-3, 48 h
[14] = system: AMO1; test: Antitumor activity against human AMO1 cells xenografted in mouse model assessed as tumor growth inhibition at 6.25 mg/kg administered for 5 days relative to control; format: functional; settings: AMO1, 120 h, time 5 day, read-out: TGI
[15] = system: AMO1; test: Antitumor activity against human AMO1 cells xenografted in mouse model assessed as tumor growth inhibition at 25 mg/kg administered for 5 days relative to control; format: functional; settings: AMO1, 120 h, time 5 day, read-out: TGI
[16] = system: NCI-H522; test: Antiproliferative activity against human NCI-H522 cells assessed as reduction in cell viability incubated for 48 hrs by MTT assay; format: functional, cell-based; settings: NCI-H522, 48 h
[17] = molecular target: T1, Induced myeloid leukemia cell differentiation protein Mcl-1; test: Inhibition of human recombinant Mcl-1 by Surface Plasmon Resonance assay
[18] = molecular target: T2, Apoptosis regulator Bcl-2 (Homo sapiens, UniProt P10415); test: Binding affinity to human Bcl-2 assessed as inhibition constant SPR assay
T2 sequence (P10415 whole entry): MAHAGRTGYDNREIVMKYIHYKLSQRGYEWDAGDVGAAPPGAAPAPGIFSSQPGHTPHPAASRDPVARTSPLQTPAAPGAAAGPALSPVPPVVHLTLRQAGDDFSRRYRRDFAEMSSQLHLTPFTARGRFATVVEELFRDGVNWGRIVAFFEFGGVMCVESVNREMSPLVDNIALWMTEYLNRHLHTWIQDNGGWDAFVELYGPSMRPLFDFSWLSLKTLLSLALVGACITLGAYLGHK

[19] = system: MV4-11; test: animal or person; settings: Mus musculus, MV4-11, po, 120 h, read-out: TGI
Description: Antitumor activity against human MV4-11 cells xenografted in C57BL/6 mouse assessed as tumor growth inhibition at 12.5 mg/kg, po administered once daily for 5 days relative to control

[20] = system: OCI-AML-5; test: Antiproliferative activity against human OCI-AML5 cells assessed as reduction in cell viability incubated for 48 hrs by MTT assay; settings: OCI-AML-5, 48 h
[21] = molecular target: T1, Induced myeloid leukemia cell differentiation protein Mcl-1; test: Binding affinity to human Mcl-1 assessed as inhibition constant
[22] = system: MV4-11; test: Induction of apoptosis in human MV4-11 cells; format: functional, cell-based
[23] = system: MOLP-8; test: Induction of apoptosis in human MOLP8 cells; format: functional, cell-based
[24] = molecular target: T3, Bcl-2-like protein 1 (Homo sapiens, UniProt Q07817); test: Binding affinity to Bcl-XL (unknown origin) assessed as inhibition constant by fluorescence polarization assay
T3 sequence (Q07817 whole entry): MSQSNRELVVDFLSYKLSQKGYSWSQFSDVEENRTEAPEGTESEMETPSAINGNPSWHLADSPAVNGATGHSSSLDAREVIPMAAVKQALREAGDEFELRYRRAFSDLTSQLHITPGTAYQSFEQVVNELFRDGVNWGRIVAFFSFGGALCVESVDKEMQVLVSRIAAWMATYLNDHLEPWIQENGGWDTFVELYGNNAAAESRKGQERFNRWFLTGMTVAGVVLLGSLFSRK

[25] = system: MOLM-13; test: Induction of apoptosis in human MOLM-13 cells; format: functional, cell-based
[26] = system: EOL1; test: Induction of apoptosis in human EOL1 cells; format: functional, cell-based
[27] = system: MOLM-13; test: Growth inhibition of human MOLM-13 cells by cell-titer Glo reagent based assay; format: functional
[28] = system: SUD4; test: Induction of apoptosis in human SU-DHL-4 cells; format: functional, cell-based
[29] = molecular target: T2, Apoptosis regulator Bcl-2; test: Binding affinity to Bcl-2 (unknown origin) expressed in Escherichia coli BL21 (DE3) assessed as inhibition constant by fluorescence polarization assay
[30] = system: HCC1187; test: Growth inhibition of human HCC1187
[31] = system: THP-1; test: Growth inhibition of human THP-1 cells incubated for 48 hrs by cell-titer Glo reagent based assay; format: functional
[32] = system: BC; test: Growth inhibition of human BC cells; format: functional
[33] = system: HL-60; test: Growth inhibition of human HL-60 cells incubated for 48 hrs by cell-titer Glo reagent based assay; format: functional
[34] = system: MOLM-13; test: Growth inhibition of human MOLM-13 cells incubated for 48 hrs by cell-titer Glo reagent based assay; format: functional
[35] = system: MV4-11; test: cells; settings: Homo sapiens, MV4-11, 48 h
Description: Growth inhibition of human MV4-11 cells incubated for 48 hrs by cell-titer Glo reagent based assay

[36] = system: MV4-11; test: Antitumor activity against human MV4-11 cells xenografted in SCID mouse assessed as inhibition of tumor growth at 100 mg/kg administered for 14 days consecutively relative to control; format: functional; settings: MV4-11, 336 h, time 14 day, read-out: TGI
[37] = Oral bioavailability in CD-1 mouse at 10 mg/kg, […]; format: ADME, organism-based; settings: in vivo
[38] = molecular target: T1, Induced myeloid leukemia cell differentiation protein Mcl-1; test: Binding affinity to Mcl-1 (unknown origin) assessed as inhibition constant
[39] = molecular target: T1, Induced myeloid leukemia cell differentiation protein Mcl-1; test: Inhibition of Mcl-1 (unknown origin)
[40] = molecular target: T2, Apoptosis regulator Bcl-2; test: Binding affinity to Bcl-2 (unknown origin) assessed as inhibition constant
[41] = molecular target: Bcl-2-like protein 2 (Homo sapiens, UniProt Q92843); test: Binding affinity to Bcl-W (unknown origin) assessed as inhibition constant
Bcl-2-like protein 2, sequence (Q92843 whole entry): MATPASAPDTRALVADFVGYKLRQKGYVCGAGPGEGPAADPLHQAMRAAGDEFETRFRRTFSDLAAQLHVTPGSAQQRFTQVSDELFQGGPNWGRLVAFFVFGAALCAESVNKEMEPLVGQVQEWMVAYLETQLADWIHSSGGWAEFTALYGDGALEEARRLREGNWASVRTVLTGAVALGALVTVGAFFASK

[42] = molecular target: T3, Bcl-2-like protein 1; test: Binding affinity to Bcl-xL (unknown origin) assessed as inhibition constant
[43] = molecular target: Bcl-2-related protein A1 (Homo sapiens, UniProt Q16548); test: Binding affinity to Bfl-1 (unknown origin) assessed as inhibition constant
Bcl-2-related protein A1, sequence (Q16548 whole entry): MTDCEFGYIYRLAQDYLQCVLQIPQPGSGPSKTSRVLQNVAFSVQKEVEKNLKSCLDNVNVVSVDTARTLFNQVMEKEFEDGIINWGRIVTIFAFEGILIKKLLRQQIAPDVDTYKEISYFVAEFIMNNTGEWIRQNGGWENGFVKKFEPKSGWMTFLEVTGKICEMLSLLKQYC

[44] = system: AMO1; test: Antitumor activity against human AMO1 cells xenografted in mouse model assessed as tumor growth inhibition at 12.5 mg/kg administered for 20 days relative to control; format: functional; settings: AMO1, 480 h, time 20 day, read-out: TGI

T1 sequence (Q07820 whole entry): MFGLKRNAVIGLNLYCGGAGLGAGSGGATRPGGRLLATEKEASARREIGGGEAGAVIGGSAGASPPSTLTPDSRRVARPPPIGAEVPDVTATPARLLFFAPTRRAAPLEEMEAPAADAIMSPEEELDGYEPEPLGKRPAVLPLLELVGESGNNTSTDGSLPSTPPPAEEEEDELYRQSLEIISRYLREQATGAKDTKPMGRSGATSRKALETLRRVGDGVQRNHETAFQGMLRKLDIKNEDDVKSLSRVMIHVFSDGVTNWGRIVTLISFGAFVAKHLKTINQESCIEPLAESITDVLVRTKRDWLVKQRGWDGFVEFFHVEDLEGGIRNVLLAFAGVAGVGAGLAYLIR

## Cc1c2c(nn1C)CSCc1cc(n(C)n1)CCc1cc(c3ccccc3c1)OCCCc1c(C(=O)O)[nH]c3c-2cccc13
[1]
  IC50: 19 nM

## Cc1c2c(nn1C)CSCc1cc(n(C)n1)CSc1cc(c3ccccc3c1)OCCCc1c(C(=O)O)n(C)c3c-2c(Cl)ccc13 [AZD-5991]
[2]
  EC50: 24 nM
[3]
  EC50: 34.9 nM
[4]
  EC50: 22.9 nM
[5]
  EC50: 31.7 nM
[6]
  EC50: 33 nM
[7]
  EC50: 190 nM

## Cc1cc(OCCC(=O)O)cc(C)c1Cl
[8]
  Ki: 68000 nM

## CCc1sc2ncnc(N[C@@H](C)C(=O)O)c2c1CC
[9]
  Ki: 1.2 nM
[10]
  Kd: 0.19 nM

## COc1ccccc1-c1nccc(COc2ccccc2C[C@H](Oc2ncnc3sc(-c4ccc(F)cc4)c(-c4ccc(OCCN5CCN(C)CC5)c(Cl)c4C)c23)C(=O)O)n1
[11]
  IC50: < 100 nM
[12]
  inhibition in vivo at 25 mg/kg: 103%
[13]
  IC50: < 100 nM
[14]
  inhibition in vivo at 6.25 mg/kg: 190%
[3]
  EC50: 10.9 nM
[4]
  EC50: 2.06 nM
[15]
  inhibition in vivo at 25 mg/kg: 114%
[5]
  EC50: 4.75 nM
[16]
  IC50: < 100 nM

## Cc1cc(SCc2nn(C)c(C)c2-c2cccc3c(CCCOc4cccc5ccccc45)c(C(=O)O)[nH]c23)nn1C
[1]
  IC50: 42 nM

## O=C(O)CSc1cc(NS(=O)(=O)c2ccc(Br)cc2)c2ccccc2c1O
[17]
  IC50: 310 nM

## CO[C@]1(CN2CCN3CCCC[C@@H]3C2)/C=C/C[C@H](C)[C@@H](C)S(=O)(=O)NC(=O)c2ccc3c(c2)N(C[C@@H]2CC[C@H]21)C[C@@]1(CCCc2cc(Cl)ccc21)CO3 [MURIZATOCLAX]
[3]
  EC50: 43.6 nM
[4]
  EC50: 13.5 nM
[5]
  EC50: 13 nM

## Cc1c(-c2c(-c3ccc(F)o3)sc3ncnc(O[C@H](Cc4ccccc4OCc4ccnn4CC(F)(F)F)C(=O)O)c23)ccc(OCCN2CCN(C)CC2)c1Cl
[18]
  Ki: > 10000 nM
[5]
  EC50: < 10 nM
[19]
  inhibition in vivo at 12.5 mg/kg: 86%
[20]
  IC50: 4 nM

## COCCOCCn1nc(C)c2c1CSCc1cc(n(C)n1)CCc1cc(c3ccccc3c1)OCCCn1c(C(=O)O)c(C)c3c-2c(Cl)ccc31
[21]
  Ki: 0.006 nM
[22]
  AC50: 14 nM
[23]
  AC50: 8.7 nM
[24]
  Ki: 5000 nM
[25]
  AC50: 10 nM
[26]
  AC50: 2.1 nM
[27]
  GI50: 10 nM
[28]
  AC50: 21 nM
[29]
  Ki: 3750 nM

## Cc1cc(OCCCc2c3n(c4c(-c5c(C)nn(C)c5C)c(Cl)ccc24)[C@H](C)CN(c2cn(C)c4ccc(C(=O)O)cc24)C3=O)cc(C)c1Cl
[30]
  GI50: 2100 nM
[31]
  GI50: 490 nM
[32]
  GI50: 1300 nM
[33]
  GI50: 3710 nM
[34]
  GI50: 210 nM
[35]
  GI50: 180 nM
[36]
  inhibition in vivo at 100 mg/kg: 60%

## CC1(C)CCC(c2ccc(Cl)cc2)=C(CN2CCN(c3ccc(C(=O)NS(=O)(=O)c4ccc(N[C@H](CCN5CCOCC5)CSc5ccccc5)c(S(=O)(=O)C(F)(F)F)c4)cc3)CC2)C1 [NAVITOCLAX]
[37]
  bioavailability: 57%

## CCC1CC/C=C/C(O)C2CCC2CN2CC3(CCc4cc(Cl)ccc43)COc3ccc(cc32)C(=O)NS1(=O)=O (stereo unspecified)
[38]
  Ki: 0.05 nM

## O=C(NS(=O)(=O)Cc1ccccc1)c1ccc2c(c1)N(CC1CCC1)CC(c1ccc(Cl)cc1Cl)O2 (stereo unspecified)
[39]
  IC50: 300 nM

## Cc1c(Cl)c2c(Cl)c(C)c1-c1c(-c3ccc(F)cc3)sc3ncnc(c13)O[C@@H](C(=O)O)Cc1cc(ccc1OCc1ccnc(-c3ccc(OC[C@@H]4COCCO4)cc3)n1)OC[C@@H](CN1CCN(C)CC1)O2
[40]
  Ki: 599 nM
[3]
  EC50: 3.91 nM
[38]
  Ki: < 0.01 nM
[4]
  EC50: 0.16 nM
[41]
  Ki: > 468 nM
[5]
  EC50: 0.47 nM
[42]
  Ki: > 660 nM
[43]
  Ki: > 468 nM
[44]
  inhibition in vivo at 12.5 mg/kg: 46%
